Structures can show the parent of a compound that is named as a salt.
Legend:
Human DYRK1B = molecular target: T1, Human DYRK1B (Homo sapiens, UniProt Q9Y463); assay: DYRK1B Kinase TR-FRET (IMAP-Tb) Assay; type: biochemical; details: TR-FRET (IMAP-Tb); ATP 70 μM; 37° C. for 60 minutes; averages of multiple runs; read-out: Enzyme IC50 (μM) DYRK1B
T1 construct: purchased Invitrogen PR8350B (former PV4649)
Source text: DYRK1B Kinase TR-FRET (IMAP-Tb) Assay Assay Principle The kinase TR-FRET (IMAP-Tb) assay uses a fluorescence labeled substrate peptide in the kinase reaction. Upon phosphorylation by the kinase, phosphopeptide is produced, which will be detected by the binding solution provided in IMAP TR-FRET binding kit. After the completion of the kinase reaction, the reaction will be stopped by adding the binding solution containing terbium tracer. This tracer is immobilized on the surface of the IMAP beads, which also contain metal ions on the beads that bind to the phospho-groups of the products. Thus the phosphorylated product of the reaction can enter into close proximity to the tracer, producing resonance energy transfer. Due to the long lifetime of terbium (Tb) fluorescence the detection can be run in time resolved mode, which virtually eliminates fluorescence interference from assay components or compounds. The TR-FRET signal measurement from this assay, given as an IC50 measurement, is a measure of a test compound's ability to interfere with the phosphorylation of the peptide substrate, that is it inhibits the phosphorylation of the substrate peptide by DYRK1B, and is thus a measure of the test compound's ability to inhibit the activity of DYRK1B. IC50 is the amount of test compound that inhibits 50% of the activity of DYRK1B in this assay. In some cases where the IC50 was not determined, then the % inhibition at 10 μM test compound concentration may be reported. Materials and Reagents • 1. Human DYRK1B: from Invitrogen. Part #PR8350B (former PV4649) • 2. Substrate Peptide: in-house synthesized: RRRFRPASPLRGPPK • 3. IMAP TR-FRET IPP Explorer Kit: from Molecular Devices. Part #R8157 • 4. Kinase Assay Buffer (KAB): 10 mM HEPES pH 7.0, 50 mM NaCl, 5 mM MgCl2, 1 mM DTT, 1 mM NaVO4, 200 μg/mL BSA (0.02%) • 5. Assay Plate: Remp polypropylene clear 384-well microplate. Cat#23490-102 • 6. Detection Plate: Costa black 384-well microplate. Cat #3710 Assay Procedure: this Assay was Performed as Follows: • 1. Transfer 1.5 μL of 20× compound solution to each well of an assay plate. • 2. Add to each well 22.5 μL of KAB Buffer. • 3. Add to each well 3 μL of the solution of DYRK1B and ATP. […] Add to each well 3 μL of the substrate peptide. The assay concentration is 1.0 μM • 5. Incubate the assay plates at 37° C. for 60 minutes. • 6. Add 18 μL of Detection Solution (1:800 diluted Progress bead stock, 1:400 diluted Tb stock, 80% Buffer A, and 20% Buffer B) into each well of detection plates. • 7. Transfer 6 μL of assay solution from the assay plate to the detection plate. • 8. Shake detection plates for 30 minutes. • 9. Read plates in Envision with wavelength set at excitation 340 nm for Tb, emission 490 nm, and […] 520 nm. • 10. Calculation: TR-FRET Signal=(Reading at […]/Reading at 490 nM)×2000000

Human DYRK1A = molecular target: T2, Human DYRK1A (Homo sapiens, UniProt Q13627); assay: DYRK1A Kinase TR-FRET (IMAP-Tb) Assay; type: biochemical; details: TR-FRET (IMAP-Tb); ATP 70 μM; 37° C. for 60 minutes; averages of multiple runs; read-out: Enzyme IC50 (μM) DYRK1A
T2 construct: purchased Invitrogen PV3997
Source text: DYRK1A Kinase TR-FRET (IMAP-Tb) Assay
The kinase TR-FRET (IMAP-Tb) assay uses a fluorescence labeled substrate peptide in the kinase reaction. Upon phosphorylation by the kinase, phosphopeptide is produced, which will be detected by the binding solution provided in IMAP TR-FRET binding kit. After the completion of the kinase reaction, the reaction will be stopped by adding the binding solution containing terbium tracer. This tracer is immobilized on the surface of the IMAP beads, which also contain metal ions on the beads that bind to the phospho-groups of the products. Thus the phosphorylated product of the reaction can enter into close proximity to the tracer, producing resonance energy transfer. Due to the long lifetime of terbium (Tb) fluorescence the detection can be run in time resolved mode, which virtually eliminates fluorescence interference from assay components or compounds.
The TR-FRET signal measurement from this assay, given as an IC50 measurement, is a measure of a test compound's ability to interfere with the phosphorylation of the peptide substrate, that is it inhibits the phosphorylation of the substrate peptide by DYRK1A, and is thus a measure of the test compound's ability to inhibit the activity of DYRK1A.
Materials and Reagents • 1. Human DYRK1A: from Invitrogen. Part #PV3997 • 2. Substrate Peptide: […] • 3. IMAP TR-FRET IPP Explorer Kit: from Molecular Devices. Part #R8157 • 4. Kinase Assay Buffer (KAB): 10 mM HEPES pH 7.0, 50 mM NaCl, 5 mM MgCl2, 1 mM DTT, 1 mM NaVO4, 200 ug/mL BSA (0.02%) • 5. Assay Plate: Remp polypropylene clear 384-well microplate. […] Detection Plate: Costa black 384-well microplate.
Assay Procedure: this Assay was Performed as Follows: • 1. Transfer 1.5 μL of 20× compound solution to each well of an assay plate. • 2. Add to each well 22.5 μL of KAB Buffer. • 3. Add to each well 3 μL of the solution of DYRK1A and ATP. […] Add to each well 3 μL of the substrate peptide. The assay concentration is 1.0 μM • 5. Incubate the assay plates at 37° C. for 60 minutes. • 6. Add 18 μL of Detection Solution (1:800 diluted Progress bead stock, 1:400 diluted Tb stock, 80% Buffer A, and 20% Buffer B) into each well of detection plates. • 7. Transfer 6 μL of assay solution from the assay plate to the detection plate. • 8. Shake detection plates for 30 minutes. • 9. Read plates in Envision with wavelength set at excitation 340 nm for Tb, emission 490 nm, and […] 520 nm. • 10.

[1] = tested on: SW620 human colon cancer cells; assay: SW620 Cell Viability Assay; type: cell-based; details: SW-620, 96 h, CellTiter-Glo Luminescent Cell Viability Assay, 4 days incubation, read-out: Cellular EC50 (μM) SW620
Method: SW620 Cell Viability Assay
1. Cell Plate Preparation: SW620 human colon cancer cells (known to express DYRK1B), obtained from ATCC, were seeded into 96-well plates at 3×10^3 cells/well in 50 μL of media. • Harvested the required number of cells (counts & viability determined by Guava Viacount). • Centrifuge cells to pellet and removed supernant. • Resuspended in growth media (50 μL/well) & pipetted thoroughly to break up clumps. • Setup for ˜100 wells/plate, therefore, VT=5 mL/plate @ […].
1A. Some cells (S—) were allowed to attach for 24 hrs, serum starved for 48 hrs, and then followed with test compound treatments.
Test compound solution were prepared in regular corresponding media supplemented with serum.
2. Test compound Preparation: Drugs were solubilized in either DMSO or media and prepared at various stock concentrations. • All compounds were incubated at 37° C. for 30 minutes and vortexed. • (5 mM stocks of test compound were prepared for non-soluble test compounds)
3. Test compound Plate Preparation: • The 10 mM test compound stock was diluted to a concentration of 100× the final Cmax concentration. • Then the test compound stock is diluted 50-fold in media and/or second test compound for a final Cmax concentration in the test compound plate. • The Cmax in the test compound plate (2% DMSO) is 2-fold higher than the final Cmax in the cell plate (60 μl, titrations were 1:3).
4. Viability Assay: This assay was performed as follows: • Transfer 50 μL of test compound solution per well from the test compound plate onto the cell plate prepared in Step #1. • Mix the plate with treated cells by pipetting up and down three times with 200 μL multi-channel pipette. • Incubate the cells in 5% CO2 incubator @ 37° C. for 4 days. • Run the CellTiter-Glo™ Luminescent Cell Viability Assay.
The results of this assay, given as EC50 values, indicate the concentration of test compound that inhibits tumor cell proliferation by 50%.

T1 sequence (Q9Y463 whole entry): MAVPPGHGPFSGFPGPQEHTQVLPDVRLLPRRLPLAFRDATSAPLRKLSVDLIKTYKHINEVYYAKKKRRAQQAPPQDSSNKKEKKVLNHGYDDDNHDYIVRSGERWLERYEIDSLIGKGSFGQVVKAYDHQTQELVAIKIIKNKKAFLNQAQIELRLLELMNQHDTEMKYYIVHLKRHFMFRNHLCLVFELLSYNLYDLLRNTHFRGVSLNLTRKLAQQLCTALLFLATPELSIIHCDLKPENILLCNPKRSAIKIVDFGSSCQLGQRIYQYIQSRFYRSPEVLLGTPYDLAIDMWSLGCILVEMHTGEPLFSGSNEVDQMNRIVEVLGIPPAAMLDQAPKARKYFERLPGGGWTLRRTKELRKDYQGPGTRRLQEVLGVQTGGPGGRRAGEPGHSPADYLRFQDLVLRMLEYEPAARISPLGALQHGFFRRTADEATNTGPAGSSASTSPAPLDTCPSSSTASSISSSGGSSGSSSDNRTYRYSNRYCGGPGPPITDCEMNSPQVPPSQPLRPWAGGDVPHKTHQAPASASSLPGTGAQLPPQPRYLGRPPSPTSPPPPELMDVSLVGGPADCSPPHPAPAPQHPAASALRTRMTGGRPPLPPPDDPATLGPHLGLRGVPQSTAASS

SMILES	IC50 (Human DYRK1B)	IC50 (Human DYRK1A)	EC50 [1]
NCC(Nc1nccc(-c2n[nH]c3nc(NCCN4CCOCC4)ncc23)n1)c1ccsc1 (stereo not drawn) [Example 82, N1-{4-[6-(2-Morpholin-4-yl-ethylamino)-1H-pyrazolo[3,4-d]pyrimidin-3-yl]-pyrimidin-2-yl}-1-thiophen-3-yl-ethane-1,2-diamine; hydrochloride]	0.012 µM	0.005 µM	0.27 µM
Clc1ccccc1CNc1cccc(-c2n[nH]c3nc(NCCN4CCOCC4)ncc23)n1 [Example 59, {3-[6-(2-Chloro-benzylamino)-pyridin-2-yl]-1H-pyrazolo[3,4-d]pyrimidin-6-yl}-(2-morpholin-4-yl-ethyl)-amine]	0.924 µM	0.663 µM	> 10 µM
NCCC(Nc1nccc(-c2n[nH]c3nc(NCCN4CCOCC4)ncc23)n1)c1ccccc1 (stereo not drawn) [Example 81, N1-{4-[6-(2-Morpholin-4-yl-ethylamino)-1H-pyrazolo[3,4-d]pyrimidin-3-yl]-pyrimidin-2-yl}-1-phenyl-propane-1,3-diamine; hydrochloride]	0.0944 µM	0.112 µM	1.75 µM
Clc1ccccc1CNc1cccc(-c2n[nH]c3nc(NCCN4CCOCC4)ncc23)c1 [Example 57, {3-[3-(2-Chloro-benzylamino)-phenyl]-1H-pyrazolo[3,4-d]pyrimidin-6-yl}-(2-morpholin-4-yl-ethyl)-amine]	1.55 µM	2.62 µM	> 10 µM
N[C@H]1CC[C@H](Nc2ncc3c(-c4cccc(NCc5ccccc5)c4)n[nH]c3n2)CC1 [Example 52, N-[3-(3-Benzylamino-phenyl)-1H-pyrazolo[3,4-d]pyrimidin-6-yl]-cyclohexane-1,4-diamine]	0.241 µM	0.594 µM	0.923 µM
NCC(Nc1cccc(-c2n[nH]c3nc(N[C@H]4CC[C@H](N)CC4)ncc23)n1)c1ccccc1 (stereo partly drawn) [Example 74, N-{3-[6-(2-Amino-1-phenyl-ethylamino)-pyridin-2-yl]-1H-pyrazolo[3,4-d]pyrimidin-6-yl}-cyclohexane-1,4-diamine; hydrochloride]	< 0.0046 µM	0.0046 µM	> 10 µM
NCCC(Nc1cccc(-c2n[nH]c3nc(N[C@H]4CC[C@H](N)CC4)ncc23)n1)c1ccccc1 (stereo partly drawn) [Example 69, N-{3-[6-(3-Amino-1-phenyl-propylamino)-pyridin-2-yl]-1H-pyrazolo[3,4-d]pyrimidin-6-yl}-cyclohexane-1,4-diamine; hydrochloride]	0.197 µM	0.231 µM	0.001 µM
NCCC(Nc1nccc(-c2n[nH]c3nc(N[C@H]4CC[C@H](N)CC4)ncc23)n1)c1cccc(Cl)c1 (stereo partly drawn) [Example 80, N-(3-{2-[3-Amino-1-(3-chloro-phenyl)-propylamino]-pyrimidin-4-yl}-1H-pyrazolo[3,4-d]pyrimidin-6-yl)-cyclohexane-1,4-diamine; hydrochloride]	< 0.0046 µM	0.0046 µM	0.89 µM
N[C@H]1CC[C@H](Nc2ncc3c(-c4cccc(NCc5cccs5)c4)n[nH]c3n2)CC1 [Example 53, N-(3-{3-[(Thiophen-2-ylmethyl)-amino]-phenyl}-1H-pyrazolo[3,4-d]pyrimidin-6-yl)-cyclohexane-1,4-diamine]	0.183 µM	0.405 µM	1.84 µM
Clc1ccc(CNc2nccc(-c3n[nH]c4nc(NCCN5CCOCC5)ncc34)n2)cc1 [Example 64, {3-[2-(4-Chloro-benzylamino)-pyrimidin-4-yl]-1H-pyrazolo[3,4-d]pyrimidin-6-yl}-(2-morpholin-4-yl-ethyl)-amine; hydrochloride]	0.353 µM	0.242 µM	> 10 µM
NCC(Nc1nccc(-c2n[nH]c3nc(NCCN4CCOCC4)ncc23)n1)c1cccc(Cl)c1 (stereo not drawn) [Example 76, 1-(3-Chloro-phenyl)-N1-{4-[6-(2-morpholin-4-yl-ethylamino)-1H-pyrazolo[3,4-d]pyrimidin-3-yl]-pyrimidin-2-yl}-ethane-1,2-diamine; hydrochloride]	0.0121 µM	0.0076 µM	0.14 µM
N[C@H]1CC[C@H](Nc2ncc3c(-c4ccnc(NCc5ccc(Cl)cc5)n4)n[nH]c3n2)CC1 [Example 72, N-{3-[2-(4-Chloro-benzylamino)-pyrimidin-4-yl]-1H-pyrazolo[3,4-d]pyrimidin-6-yl}-cyclohexane-1,4-diamine; hydrochloride]	0.009 µM	0.013 µM	0.056 µM

— patent publication US8362023B2, “Pyrazolo pyrimidines” (Hoffmann-La Roche Inc., priority 2011, dated 2013)
